These results are taken from ChEMBL document CHEMBL5126548, “Small-molecule MDM2 inhibitors in clinical trials for cancer therapy” (Eur J Med Chem, 2022).

Bounds are passed on as bounds.

The nature of series [1]: AUC in CB17SCID mouse at 125 mg/kg, po and measured upto 24 hrs. The note with it: in vivo. Further details: dose 125 mg/kg, time < 24 hrs, route po. The format is ADME, organism-based.
The nature of series [2]: Cmax in CB17SCID mouse at 125 mg/kg, po and measured upto 24 hrs. The format is ADME, organism-based. Further details: dose 125 mg/kg, time < 24 hrs, route po. The note with it: in vivo.
The target in series [3] is Tumour suppressor p53/oncoprotein Mdm2 (Homo sapiens, UniProt Q00987). The experiment in a line: Inhibition of recombinant human MDM2/p53 interaction. The format is protein assay.
Series [4] in a line: Antiproliferative activity against human Kelly cells harboring TP53 mutant assessed as reduction in cell viability and measured upto 72 hrs by XTT assay. The format is functional, cell-based.
The next series deals with IMR-5. The series is described as follows: Antiproliferative activity against human IMR-5 cells harboring wildtype TP53 assessed as reduction in cell viability and measured upto 72 hrs by XTT assay. The format is functional, cell-based. The conditions noted are these: IMR-5, 72 h.
Series [5] can be described thus: Antiproliferative activity against human LA-N-5 cells harboring wildtype TP53 assessed as reduction in cell viability and measured upto 72 hrs by XTT assay. In kind it is functional, cell-based. The note with it: LA-N-5, 72 h.
Another series has as its system SK-N-SH. The experiment in a line: Antiproliferative activity against human SK-N-SH cells harboring wildtype TP53 assessed as reduction in cell viability and measured upto 72 hrs by XTT assay. The format is functional, cell-based. (Formazan colour is commonly taken as a measure of viable cells.)
The subject of a further series is IMR-32. The experiment in a line: Antiproliferative activity against human IMR-32 cells harboring wildtype TP53 assessed as reduction in cell viability and measured upto 72 hrs by XTT assay. The note with it: IMR-32, 72 h. The format is functional, cell-based.
The test system of another series is SH-SY5Y. The experiment in a line: Antiproliferative activity against human SH-SY5Y cells harboring wildtype TP53 assessed as reduction in cell viability and measured upto 72 hrs by XTT assay. The format is functional, cell-based.
Series [6] in a line: Oral bioavailability in Sprague-Dawley rat at 2 mg/kg by LC-MS/MS method. In kind it is ADME, organism-based. The conditions noted are these: in vivo.
The nature of series [7]: Oral bioavailability in cynomolgus monkey at 2 mg/kg by LC-MS/MS method. The note with it: in vivo. The format is ADME, organism-based, Macaca fascicularis.
The nature of series [8]: Oral bioavailability in CD-1 mouse at 5 mg/kg by LC-MS/MS method. The format is ADME, organism-based. The conditions noted are these: in vivo.
A short description of series [9]: Oral bioavailability in Beagle dog at 2 mg/kg by LC-MS/MS method. The format is ADME, organism-based, Canis lupus familiaris. The conditions noted are these: in vivo.
A further series can be described thus: animal or person. The conditions noted are these: Homo sapiens, MHM, po, read-out: TGI.
The next series relates to SJSA-1. The experiment in a line: animal or person. The conditions noted are these: Mus musculus, SJSA-1, po, read-out: TGI.

Chain of Tumour suppressor p53/oncoprotein Mdm2 (P04637 whole entry): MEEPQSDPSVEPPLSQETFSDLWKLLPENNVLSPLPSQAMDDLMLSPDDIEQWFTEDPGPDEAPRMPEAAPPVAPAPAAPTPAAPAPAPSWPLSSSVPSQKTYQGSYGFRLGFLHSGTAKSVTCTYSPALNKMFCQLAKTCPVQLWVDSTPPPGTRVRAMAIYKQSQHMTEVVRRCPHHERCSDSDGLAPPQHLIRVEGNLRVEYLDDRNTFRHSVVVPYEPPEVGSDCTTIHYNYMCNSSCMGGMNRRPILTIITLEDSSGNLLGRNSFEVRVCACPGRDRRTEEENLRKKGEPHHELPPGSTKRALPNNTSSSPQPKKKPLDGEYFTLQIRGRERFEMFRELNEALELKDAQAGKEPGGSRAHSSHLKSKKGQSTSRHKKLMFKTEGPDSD
Chain of Tumour suppressor p53/oncoprotein Mdm2 (Q00987 whole entry): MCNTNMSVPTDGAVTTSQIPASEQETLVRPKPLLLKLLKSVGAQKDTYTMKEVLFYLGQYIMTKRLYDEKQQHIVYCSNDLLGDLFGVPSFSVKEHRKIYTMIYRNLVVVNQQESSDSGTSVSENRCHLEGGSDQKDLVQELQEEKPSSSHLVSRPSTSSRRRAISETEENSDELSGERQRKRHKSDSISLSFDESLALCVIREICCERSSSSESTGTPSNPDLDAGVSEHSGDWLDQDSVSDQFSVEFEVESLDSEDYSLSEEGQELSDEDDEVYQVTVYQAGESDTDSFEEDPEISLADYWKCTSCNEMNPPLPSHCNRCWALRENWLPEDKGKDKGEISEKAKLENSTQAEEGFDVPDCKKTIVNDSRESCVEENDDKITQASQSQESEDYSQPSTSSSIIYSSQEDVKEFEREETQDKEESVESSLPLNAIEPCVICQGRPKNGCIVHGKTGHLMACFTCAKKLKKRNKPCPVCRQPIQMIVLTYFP
Description for SJSA-1: Antitumor activity against human SJSA-1 xenografted Balb/c mouse assessed as tumor growth inhibition at 50 mg/kg,po administered daily by caliper method

Regarding `CCC[C@H]1N(C(=O)c2ncccc2C(F)(F)F)CCC[C@@]1(Oc1csc(C(F)(F)F)c1)C(=O)N1CCC(O)(c2ccccc2O[C@H](C)CCC2(C(=O)O)CCC2)CC1`, the AUC at 24 h in series [1] is 200 µM·h. For the same compound, in series [2], the peak concentration (Cmax) stood at 40 µM.

For the compound `COc1ccccc1-n1nc2c(c1C(C)C)[C@H](c1ccc(Cl)cc1C)N(c1cc(Cl)cc(OCCN(C)C)c1)C2=O`, the IC50 in series [3] is 0.13 nM.

Consider `CC1(C)CCC2(CC1)N[C@H](C(=O)N[C@@H]1CC[C@@H](C(N)=O)OC1)[C@H](c1ccnc(Cl)c1F)[C@]21C(=O)Nc2cc(Cl)ccc21`, for which the IC50 was over 2000 nM in [4]; 25.7 nM in the series with IMR-5; 44.1 nM in series [5]; 21.9 nM in the series with SK-N-SH; 56.2 nM with IMR-32; 17.7 nM in the series with SH-SY5Y.

Turning to `CC(C)[C@@H](CS(=O)(=O)C(C)C)N1C(=O)[C@@](C)(CC(=O)O)C[C@H](c2cccc(Cl)c2)[C@H]1c1ccc(Cl)cc1` [NAVTEMADLIN], the bioavailability in series [6] is over 42%; in [7] it was over 44%; in [8] it was over 43%; in series [9] it was 18%.

As to `CCOc1cc(C(C)(C)C)ccc1C1=N[C@@](C)(c2ccc(Cl)cc2)[C@@](C)(c2ccc(Cl)cc2)N1C(=O)N1CCN(CCCS(C)(=O)=O)CC1` [RO-5045337], the inhibition in vivo at 50 mg/kg is 69% in “animal or person” and 74% with SJSA-1.

In general, AUC refers to concentration integrated over time. By Cmax is commonly meant the highest concentration seen after dosing. In general, IC50 refers to the concentration at which inhibition is half-maximal. In general, bioavailability refers to the share of a dose that reaches the circulation, judged against a reference dose that is usually intravenous.
